Entries after “also recorded” stand apart in the source; their conditions may differ. Residues, ends and D or L forms follow the SMILES beside them. *: point of attachment. Cbz = O=C(OCc1ccccc1)*; CH2F = FC*
Key:
[1] = tested on: immortalized WT microglial cells; assay: aggregated αSyn-induced IL-1β secretion from unprimed immortalized microglial cells; assay type: cell-based; conditions: pre-treatment before aggregated αSyn, FIG. 19B
Description: The current model of the NLRP3 inflammasome postulates a two-step mechanism. A TLR or TNFR1 agonist, acting as the initial signal, induces the expression of pro-[…] and NLRP3 proteins. Subsequently, a second signal causes lysosomal rupture, mitochondrial ROS generation and/or K^+ efflux that acts as a danger signal resulting in the assembly and activation of the inflammasome complex and the processing and secretion of IL-1β into the cell supernatant. Since we observed that αSyn can signal the inflammasome and can also amplify LPS-mediated activation of NLRP3 and pro-IL-1β at the mRNA and protein level, we wondered if it could activate the NLRP3 inflammasome independent of an LPS-mediated priming step. Unprimed and immortalized WT and Capsase-1^−/− microglial cells were treated with aggregated αSyn for 4 h. As assessed via immunoblot, aggregated αSyn induced pro-IL-1β and NLRP3 to equivalent levels in both cell types (FIG. 19A). It also brought about the secretion of IL-1β in WT, and to a strikingly lower extent in the Caspase-1 deficient microglial cells. […] We next utilized primary BMDMs from WT, NLRP3^−/−, Caspase-1^−/− and Caspase-11^−/− mice to test the ability of αSyn to activate the NLRP3 inflammasome in them. As expected, we saw no genotypic difference in the ability of macrophages to induce pro-IL-1β and import αSyn (FIG. 19C). […]

microglial cell line [2] = assay: Luminex cytokine assay, aggregated α-synuclein induced pro-inflammatory cytokines; assay type: cell-based; conditions: 1-30 μM pretreatment, aggregated α-synuclein (1 μM) 24 hours; FIG. 26C
Description: Primary microglia obtained from wild-type, PKCδ^−/− and Fyn^−/− mice were seeded in poly-D-lysine-coated 96-well plates at 1×10^5 cells/well. The cells were treated for 24 h with 100-200 ng/mL LPS or 10 ng/mL TNFα. After treatment, 50 μL of supernatant from each well was collected and frozen at −80° C. The levels of cytokines and chemokines in the supernatants were determined using the Luminex bead-based immunoassay platform (Vignali 2000) and pre-validated multiplex kits (Milliplex mouse cytokine panel Millipore) according to the manufacturer's instructions.
(§1) In this study microglial cell line were pretreated with 1-30 μM Saracatinib, a Fyn kinase inhibitor followed by aggregated α-synuclein (1 μM) for 24 hours in a 96 well plate.

MPTP-treated mice = assay: microglia activation (IBA-1) in substantia nigra, acute MPTP mouse model; assay type: in vivo, C57 black mice; conditions: FIG. 27; for expression of IBA-1 in SN tissue (Western blot): oral 5 mg/kg once on days 1 and 2, MPTP 18 mg/kg x 4 i.p., 24 hrs after last MPTP
Description: Thus, we evaluated whether the Sarcanatib attenuates microglial activation in the substantia nigra. C57 black mice were orally administered saracatinib (5 mg/kg, once) on days 1 and 2. On day 2, after sarcanatib administration, mice were subject to acute MPTP regimen. Mice were administered 18 mg/kg MPTP (4 i.p. injections at 2 hour intervals) and control animals received saline. Mice were sacrificed 24 hrs post last MPTP injection. Brain harvested and nigral tissue lysates were subject to Western blot analysis.

microglial cell line [3] = assay: Griess assay, aggregated α-synuclein induced nitrite production; assay type: cell-based; conditions: FIG. 26B
Description: Nitric oxide production by primary microglia was measured indirectly by quantification of nitrite in the supernatant using the Griess reagent (Sigma Aldrich). Microglia were plated in poly-D-lysine-coated 96-well plates at 1×10^5 cells/well. Cells were treated with 100 ng/mL of LPS for 24 h and after 100 μL of supernatant was collected from each well, an equal volume of the Griess reagent was added. The samples were incubated on a plate shaker at room temperature for 15 min until a stable color was obtained. The absorbance at 540 nm was measured using a Synergy 2 multi-mode microplate reader (BioTek Instruments) and the nitrite concentration was determined from a sodium nitrite standard curve.
as §1

microglial cell line [4] = assay: cell viability assay in microglial cell line; assay type: cell-based; conditions: FIG. 26A
Description: as §1

[5] = tested on: LPS-primed primary murine microglia; assay: αSyn-induced IL-1β and TNFα production in LPS-primed primary microglia; assay type: cell-based; conditions: pre-treatment post priming, before αSyn; FIG. 14A
Description: Misfolded proteins can activate the NLRP3 inflammasomes in microglia (Hafner-Bratkovic et al., 2012; Halle et al., 2008). After obtaining and purifying human αSyn (FIG. 15), we determined that endotoxin contamination was minimal, and that an equivalent concentration of LPS could not activate pro-inflammatory signaling in microglia (data not shown). Aggregation of αSyn was performed as previously described (Zhang et al., 2005). LPS-primed primary murine microglia were treated with α-synuclein for 24 h, with or without the pre-treatment of the pan-Caspase inhibitor ZVAD-FMK or the Caspase-1 specific inhibitor ZYVAD-FMK. […] Next, we treated LPS-primed bone marrow-derived macrophages (BMDMs) from WT, NLRP3^−/−, ASC^−/−, Caspase-1^−/− and Caspase-11^−/− mice with aggregated human α-synuclein for 24 h (FIG. 14B). […] By immunoblotting the levels of pro-IL-1β produced upon LPS treatment (FIG. 14C, 14D), we confirmed that none of these proteins played a role in the priming of the NLRP3 inflammasome. Next, we assessed the inflammasome activating ability of aggregated human αSyn in primary murine microglia by staining for ASC in LPS and LPS+αSyn treated microglia. […] We also utilized the ASC-CFP reporter cell line, which overexpresses ASC tagged with cyan fluorescent protein (CFP). NLRP3 inflammasome activation causes ASC to coalesce into a single speck within each cell. We counted the number of ASC-positive specks to measure inflammasome activation. ASC-CFP cells were primed with LPS and treated with aggregated αSyn for 2 h. Endogenous CFP fluorescence was assessed. In the αSyn treated group, specks of ASC were observed, indicating inflammasome activation (FIG. 14G). […] In summary, aggregated αSyn acts as an efficient danger signal to activate the NLRP3 inflammasome. Data from the A53T model and from PD patient lysates provide in vivo relevance as well. We also observed increased Fyn expression within the microglia in PD tissues, when compared to age-matched control tissues (FIG. 16).

Compound	αSyn-induced secretion of IL-1β [1]	IL-1β production induced by aggregated α-synuclein (microglial cell line [2])	IL-12 production induced by aggregated α-synuclein (microglial cell line [2])	TNF-α production induced by aggregated α-synuclein (microglial cell line [2])	activation of microglia in the substantia nigra (MPTP-treated mice; MPTP-treated mice)	expression of IBA-1 in SN tissue (Western blot) (MPTP-treated mice)	expression of IBA-1 in SN tissue (Western blot) (MPTP-treated mice; listed as saracatinib)	nitrite production induced by aggregated α-synuclein (microglial cell line [3]; 10 μM dose)	aggregated α-synuclein induced nitrite production (microglial cell line [3]; 1-30 μM pretreatment, aggregated α-synuclein (1 μM) 24 hours)	cytotoxic cell death (microglial cell line [4]; 1-30 μM pretreatment, then aggregated α-synuclein (1 μM) for 24 hours)	cell death (microglial cell line [4]; low dose)	secretion/production of TNFα [5]	αSyn-induced IL-1β cleavage and secretion [5]
CN1CCN(CCOc2cc(OC3CCOCC3)c3c(Nc4c(Cl)ccc5c4OCO5)ncnc3c2)CC1 [Saracatinib]	inhibited by pre-treatment with the Fyn inhibitor Saracatinib in a dose-dependent manner; also recorded: inhibited with pretreatment of the Fyn inhibitor Saracatinib in a dose dependent manner	significantly attenuated; also recorded: attenuates the secretion	significantly attenuated; also recorded: attenuates the secretion	significantly attenuated; also recorded: attenuates the secretion	blocked activation of microglia	not in Saracatinib and MPTP-treated animals	attenuated the expression of IBA-1	attenuates the nitrite production	significantly blocked aggregated α-synuclein induced nitrite production in a dose-dependent manner	did not induce cytotoxic cell death	not associated with cell death		
COC(=O)C[C@H](NC(=O)[C@H](C)NC(=O)[C@@H](NC(=O)OCc1ccccc1)C(C)C)C(=O)CF [ZVAD-FMK] (Cbz-Val-Ala-Asp(OMe)-CH2F)												only marginally reduced	reduced in the group pre-treated with the Caspase inhibitors
COC(=O)C[C@H](NC(=O)[C@H](C)NC(=O)[C@@H](NC(=O)[C@H](Cc1ccc(O)cc1)NC(=O)OCc1ccccc1)C(C)C)C(=O)CF [ZYVAD-FMK]												only marginally reduced	reduced in the group pre-treated with the Caspase inhibitors

From patent US20170209443A1, “ANTI-INFLAMMATORY EFFECT OF ORALLY ACTIVE FYN KINASE INHIBITOR SARA-CATINIB (AZD 0530) AGAINST PARKINSON'S DISEASE AND OTHER RELATED NEURODEGENARATIVE DISEASES” (Iowa State University Research Foundation, Inc., priority 2016, published 2017)
